Results as given in patent US9040573B2, “Anti-fungal agent” (Nihon Nohyaku Co., Ltd., priority 2011, dated 2015).
In brackets after ≈: the same amount, converted by molar mass. Like-named read-outs stand apart in the source and are kept apart here.

Tests used:
[1] = tested on: Scytalidium hyalinum; test: Antifungal Activity Test 2: MIC by broth microdilution method (Alamar Blue); format: cell-based; conditions: Neoscytalidium hyalinum
Experimental: (§1) The minimum inhibitory concentration (MIC) was measured by a broth microdilution method. That is, RPMI1640 medium (Sigma-Aldrich) was buffered with 0.165 M morpholine propanesulfonic acid (MOPS, Wako Pure Chemical Industries, Ltd.) to pH 7.0, and a given amount of a solution of the drug in DMSO was added thereto to prepare 2-fold dilution series within the range of 0.00098-4 μg/mL. This was added to a 96-well microplate by 100 μL, a fungal inoculum solution (100 μL, final concentration of fungi to be added: 1.0×10^4 cells/mL) was added, and the mixture was cultured at 35° C. An Alamar Blue reagent was added in advance to the culture medium (final addition concentration: 10%) and, at the time point when the Alamar Blue reagent in the drug-free growth control group changed from blue to red, the culture was discontinued and the absorbance (differential optical density at 570 nm based on 590 nm served as reference) measured. The minimum concentration of the drug that inhibited the growth of the fungus in the growth control group by 80% or more was taken as MIC. The concentration to be MIC (MIC90) in 9 strains out of the 10 strains (90%) measured was determined.
Scytalidium hyalinum strain of clinical isolate available from CBS (Netherlands) was used. The fungus was pre-cultured in an SDA medium, 0.1% (w/v) Tween 80-containing sterile saline was added to give a suspension, which was filtered through gauze to collect arthrospore. This was suspended in 0.1% (w/v) Tween 80-containing sterile saline, and added to a 20% Alamar Blue-containing medium to 2×10^4 cells/mL to give a fungal inoculum solution.
(§2) Each drug was used after dissolving in DMSO (dimethyl sulfoxide).
The test method was the same as in the aforementioned antifungal activity test 1, and the minimum concentration of the drug that inhibited the growth of the fungus in the growth control group by 80% or more was taken as MIC. The MIC range of the 4 strains measured and the geometric mean (GM) of each drug were determined.

[2] = tested on: Scytalidium dimidiatum; test: Antifungal Activity Test 1: MIC by broth microdilution method (Alamar Blue); format: cell-based; conditions: Neoscytalidium dimidiatum; for MIC: growth inhibited by 80% or more, read-out: MIC
From the text: Scytalidium dimidiatum strain of clinical isolate obtained by separation and identification from nail or stratum corneum of patients with superficial mycosis was used. The fungi pre-cultured on an SDA medium was suspended in 0.1% (w/v) Tween 80-containing sterile saline and the suspension was filtered through gauze to collect arthrospore. This was suspended in 0.1% (w/v) Tween 80-containing sterile saline, and added to a 20% Alamar Blue-containing medium to 2×10^4 cells/mL to give a fungal inoculum solution.
as §2, §1
Reference documents for measurement method: Takako Shinoda et al.: opinion proposed by Committee for Clinical Laboratory Standards of The Japanese Society for Medical Mycology (1995-1997), Method for antifungal susceptibility testing of filamentous fungus, Medical Mycology Journal, 40: 239-257, 1999. Clinical Laboratory Standards Institute/National Committee for Clinical Laboratory Standards. Reference method for broth dilution antifungal susceptibility testing of filamentous fungus. Approved Standard M38-A2. Wayne, Pa.: National Committee for Clinical Laboratory Standards, 2008. Test Results

MIC ([1]; clinical isolate CBS200.88, growth inhibited by 80% or more, read-out: MIC): 0.13 µg/mL (≈ 0.372 µM) | MIC ([1]; clinical isolate CBS545.95, growth inhibited by 80% or more, read-out: MIC): 0.063 µg/mL (≈ 0.18 µM) | MIC ([1]; clinical isolate CBS601.85, growth inhibited by 80% or more, read-out: MIC): 0.016 µg/mL (≈ 0.0458 µM) | MIC ([1]; clinical isolate CBS619.84, growth inhibited by 80% or more, read-out: MIC): 0.13 µg/mL (≈ 0.372 µM) | MIC ([1]; geometric mean of the 4 strains measured, read-out: GM (geometric mean of MIC)): 0.064 µg/mL (≈ 0.183 µM) | MIC ([1]; range of the 4 strains measured, read-out: MIC range): 0.016 to 0.13 µg/mL (≈ 0.0458 to 0.372 µM) | MIC ([2]; clinical isolate 530129): 0.25 µg/mL (≈ 0.716 µM) | MIC ([2]; clinical isolate 530142): 0.25 µg/mL (≈ 0.716 µM) | MIC ([2]; clinical isolate 530251): 0.13 µg/mL (≈ 0.372 µM) | MIC ([2]; clinical isolate 530621): 0.25 µg/mL (≈ 0.716 µM) | MIC ([2]; clinical isolate 530633): 0.25 µg/mL (≈ 0.716 µM) | MIC ([2]; clinical isolate 530914): 0.25 µg/mL (≈ 0.716 µM) | MIC ([2]; clinical isolate 530946): 0.25 µg/mL (≈ 0.716 µM) | MIC ([2]; clinical isolate 530999): 0.13 µg/mL (≈ 0.372 µM) | MIC ([2]; clinical isolate 531581): 0.25 µg/mL (≈ 0.716 µM) | MIC ([2]; clinical isolate 531869): 0.13 µg/mL (≈ 0.372 µM) | MIC90 ([2]; concentration to be MIC in 9 strains out of the 10 strains (90%), read-out: MIC90): 0.25 µg/mL (≈ 0.716 µM)
SMILES: C[C@@H](c1ncncc1F)[C@](O)(Cn1cncn1)c1ccc(F)cc1F [VCZ, voriconazole]
